Results published in US20250025490A1, “INDUCTION OF TRAINED IMMUNITY FOR THE TREATMENT OF HYPERPROLIFERATIVE DISORDERS” (priority 2021, published 2025).

Legend:
[1] = test system: LLC cells; assay: LDH release cytotoxicity assay against LLC cells; conditions: Mdivi-1 10 μM, 10:1
Method: Cytotoxicity assay. Lung IMs from the PBS vs WGP-trained mice were sorted and co-cultured with LLC cells at different ratios in a 96-well plate. The plates were then incubated at 37° C. with 5% CO2 for 12-16 h. Upon completion of incubation, the supernatants were harvested and assayed for the release of lactate dehydrogenase as per the instructions described in the CyQUANT™ LDH Cytotoxicity Assay Kit (Invitrogen). For the cytotoxicity assay in the presence of Mdivi-1 (10 μM) (Sigma Aldrich), peritoneal macrophages were in vitro trained with PBS or WGP in the presence of Mdivi-1 or DMSO for 6 days. The macrophages were then harvested, counted, and co-cultured with LLC cells at a ratio of 10:1 followed by the lactate dehydrogenase assay for cytotoxicity. In another set of experiments, IMs from the lungs of PBS vs WGP-trained mice were harvested, sorted, and co-cultured with LLC cells (10:1) in the presence of N-acetyl-L-Cysteine (NAC, 1 mM) (Sigma Aldrich) or DMSO and assayed for cytotoxicity.

[2] = test system: peritoneal macrophages; assay: Mitochondrial fission, TMRM confocal microscopy; type: cell-based, mice; conditions: Mdivi-1 10 μM
Method: Confocal microscopy. Poly-L-Lysine-treated glass coverslips were added to 12 well plates to which appropriate numbers of macrophages were added along with 2 ml of sterile complete DMEM. Cells were trained with WGP alone or in combination with Mdivi-1 (10 μM) for 7 days as previously described. After 7 days of incubation, the media was removed, and the cells were washed with sterile PBS followed by addition of TMRM dye (Tetramethylrhodamine, methyl ester, Sigma) for 20 min. After incubation, the cells were washed with PBS and fixed with 1 ml of 4% formalin at room temperature for 20-30 min. The cells were washed thrice with PBS and the glass slides were removed carefully with the help of forceps and mounted on the slides using mounting reagents and left overnight to dry at room temperature or stored at 4° C. protecting from the light. The slides were then read using a Nikon Confocal microscope. Mitochondrial fragment lengths were measured by counting at least 100 mitochondria per sample using an Image-J software.

[3] = test system: LLC-GFP cells; assay: In vivo Mdivi-1 treatment during WGP training, phenotyping and LLC-GFP challenge; parameters: species or system C57Bl/6 mice
Method: In vivo Mdivi-1 treatment. 6 weeks old C57B1/6 female mice were i.p. injected with Mdivi-1 (50 mg/kg) or DMSO along with suitable carriers (5% Tween-80 and 40% PEG300) starting day 0 for 6 days. Mdivi-1/DMSO treated mice were also treated with PBS or WGP at day 0. Mice were euthanized at day 7 to harvest the BM and lungs for phenotyping using flow cytometry. In tumor challenging experiment, Mdivi-1/DMSO-treated PBS vs WGP trained mice were i.v. injected with 0.4×10^6 LLC-GFP cells on day 9. Mice were euthanized on day 27. Lungs were then analyzed for tumor burden using flow cytometry.
CyTOF mass cytometry staining, data acquisition, and analysis. Lung single cell suspensions were prepared as described earlier and ex vivo stimulated with PMA/Ionomycin for 4 h at 37° C., 5% CO2. The cells were then harvested, washed with PBS and transferred to sterile-capped culture tubes. Cells were then stained for viability using 5 μM cisplatin (Fluidigm) in serum-free RPMI 1640 for 5 min at RT and washed with complete RPMI 1640. Cells were stained with the surface markers antibodies for 30 min at RT and washed twice with Maxpar cell staining buffer (Fluidigm) followed by fixation with 1 ml of 1X Maxpar Fix I buffer for 30 min at RT. Upon fixation, cells were washed twice with 2 ml of 1X Maxpar Perm-S buffer for 5 min at 800 g, stained for the cytoplasmic/secreted antibodies and incubated for 30 min at RT. Following incubation, cells were washed twice with 1 ml of 1X Maxpar Perm-S buffer for 5 min at 800 g. The cells were then suspended in 1 ml of 1X Maxpar nuclear antigen staining buffer (Fluidigm) and incubated for 30 min at RT, washed twice with Maxpar nuclear antigen staining permeability buffer (Fluidigm) at 800 g for 5 min each. Cells were stained for nuclear antigens and incubated at RT for 30 min, washed twice with Maxpar nuclear antigen staining permeability buffer and fixed with 1.6% formaldehyde for 10 min at RT. The fixed cells were then centrifuged to remove the formaldehyde at 800 g for 5 min and incubated with 125 nM of intercalator iridium (Fluidigm) overnight at 4° C. After overnight incubation, the cells were washed twice with cell staining buffer, pelleted and kept on ice until acquisition using CyTOF. Prior to acquisition, cells were suspended in a 1:9 solution of Cell acquisition solution: EQ 4 element calibration beads (Fluidigm) and acquired using a Helios CyTOF system. Upon acquisition of the samples, the .FCS files were normalized to .fcs files using the CyTOF software for analysis. The data acquired by CyTOF were then analyzed using FlowJo10 and the FlowSOM softwares.

[4] = test system: LLC-GFP tumor cells; assay: BMDM training and adoptive transfer, LLC-GFP challenge; type: in vivo, mice; conditions: BMDM trained in presence of Mdivi-1
Source text: BMDMs were trained in the presence of Mdivi-1 or DMSO. BMDMs (1×10^6) were then adoptively transferred intravenously to WT mice twice 2 days apart. Two days later recipient mice were challenged with LLC-GFP tumor cells. Mice were euthanized at day 21 post tumor challenge to analyze the tumor burden and T cell phenotype in the lungs.
To examine whether ex vivo beta-glucan trained macrophages could be used for adoptive cell therapy, bone marrow-derived macrophages (BMDM) were used for a proof-of-concept study. To this end, BMDM were trained with WGP beta-glucan for 7 days and then adoptively transferred into naïve mice. Recipient mice were then challenged with LLC-GFP tagged lung cancer cells. Mice were euthanized at day 21 (FIG. 15A).

COc1cc(-n2c(=S)[nH]c3ccccc3c2=O)c(Cl)cc1Cl [Mdivi-1]
effect on cytotoxicity of WGP-trained peritoneal macrophages [1]: abrogated WGP-mediated mtROS production (FIG. 14D) and cytotoxicity against tumor cells | effect on WGP-induced mitochondrial fragmentation [2]: abrogated WGP-induced mitochondrial fragmentation | effect on WGP-mediated accumulation of myeloid cells in the lungs ([3]; Mdivi-1 50 mg/kg i.p. daily): did not affect WGP-mediated accumulation of myeloid cells in the lungs | effect on WGP-mediated myelopoiesis in the BM ([3]; Mdivi-1 50 mg/kg i.p. daily, day 7): does not inhibit WGP-mediated myelopoiesis in the BM | lung IM trained phenotype (TNF-α) in WGP trained mice ([3]; Mdivi-1 treated): completely inhibited | tumor burdens in the lungs ([3]; WGP trained + Mdivi-1 vs untrained control): no difference in the tumor burdens between WGP trained mice treated with Mdivi-1 and untrained control mice | F4/80+CD11b+ lung MAMs and PD-L1+/CD206+ lung macrophages, CyTOF ([3]; mouse, in vivo): this effect was abolished when mice were treated with Mdivi-1 | effect on WGP-trained BMDM-mediated effect [4]: completely abrogated WGP-trained BDMD-mediated effect
